What all share (type): in vivo
Assay [1] concerns Kochia (Kochia scoparia). Briefly: Test A preemergence. As to conditions: Bassia scoparia, pre-emergence, 240 h. Summed up:
(§1)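 Preemergence directed soil spray on seeded pots, or postemergence application to plants 2–10 cm, one- to two-leaf. Solvent mixture non-phytotoxic, with surfactant. Scored ~10 d later, visually, 0–100 vs untreated.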

Assay [2] relates to giant foxtail (Setaria faberii). Briefly: Test A preemergence. The settings on record: Setaria faberi, pre-emergence, 240 h. In a few lines:
as §1

Assay [3] relates to pigweed (Amaranthus retroflexus). Briefly: Test A preemergence. The settings on record: Amaranthus retroflexus, pre-emergence, 240 h.
Assay [4] has as its system ragweed (common ragweed, Ambrosia elatior). Briefly: Test A preemergence. The settings on record: Ambrosia artemisiifolia, pre-emergence, 240 h. In a few lines:
as §1

The subject of assay [5] is ryegrass, Italian (Italian ryegrass, Lolium multiflorum). Briefly: Test A preemergence. As to conditions: Lolium multiflorum, pre-emergence, 240 h. In a few lines:
as §1

Assay [6] concerns Galium (catchweed bedstraw, Galium aparine). Briefly: Test A postemergence. The settings on record: Galium, post-emergence, 240 h, 125 g ai/ha, postemergence; visual injury after approximately 10 d; 0 to 100 scale (0 no effect, 100 complete control); read-out: Plant response rating, Galium. Summed up: as §1
The subject of assay [7] is Kochia (Kochia scoparia). Briefly: Test A postemergence. The settings on record: Bassia scoparia, post-emergence, 240 h, 125 g ai/ha, postemergence; visual injury after approximately 10 d; 0 to 100 scale (0 no effect, 100 complete control); read-out: Plant response rating, Kochia. In a few lines:
as §1

Assay [8] concerns barnyardgrass (Echinochloa crus-galli). Briefly: Test A postemergence. The settings on record: Echinochloa crus-galli, post-emergence, 240 h, 125 g ai/ha, postemergence; visual injury after approximately 10 d; 0 to 100 scale (0 no effect, 100 complete control); read-out: Plant response rating, Barnyardgrass. In a few lines:
as §1

Assay [9] relates to blackgrass (Alopecurus myosuroides). Briefly: Test A postemergence. As to conditions: Alopecurus myosuroides, post-emergence, 240 h, 125 g ai/ha, postemergence; visual injury after approximately 10 d; 0 to 100 scale (0 no effect, 100 complete control); read-out: Plant response rating, Blackgrass. Summed up: as §1
In the next assay the test system is corn (Zea mays). Briefly: Test A postemergence. The settings on record: Zea mays, post-emergence, 240 h, 125 g ai/ha, postemergence; visual injury after approximately 10 d; 0 to 100 scale (0 no effect, 100 complete control). In a few lines:
as §1

Assay [10] deals with giant foxtail (Setaria faberii). Briefly: Test A postemergence. As to conditions: Setaria faberi, post-emergence, 240 h, 125 g ai/ha, postemergence; visual injury after approximately 10 d; 0 to 100 scale (0 no effect, 100 complete control); read-out: Plant response rating, Foxtail, Giant. In a few lines:
as §1

Assay [11] concerns pigweed (Amaranthus retroflexus). Briefly: Test A postemergence. The settings on record: Amaranthus retroflexus, post-emergence, 240 h, 125 g ai/ha, postemergence; visual injury after approximately 10 d; 0 to 100 scale (0 no effect, 100 complete control); read-out: Plant response rating, Pigweed. In a few lines:
as §1

For assay [12], the system named is ragweed (common ragweed, Ambrosia elatior). Briefly: Test A postemergence. As to conditions: Ambrosia artemisiifolia, post-emergence, 240 h, 125 g ai/ha, postemergence; visual injury after approximately 10 d; 0 to 100 scale (0 no effect, 100 complete control); read-out: Plant response rating, Ragweed. Summed up: as §1
For assay [13], the system named is ryegrass, Italian (Italian ryegrass, Lolium multiflorum). Briefly: Test A postemergence. As to conditions: Lolium multiflorum, post-emergence, 240 h, 125 g ai/ha, postemergence; visual injury after approximately 10 d; 0 to 100 scale (0 no effect, 100 complete control); read-out: Plant response rating, Ryegrass, Italian. Summed up:
as §1

The subject of assay [14] is wheat (Triticum aestivum). Briefly: Test A postemergence. As to conditions: Triticum aestivum, post-emergence, 240 h, 125 g ai/ha, postemergence; visual injury after approximately 10 d; 0 to 100 scale (0 no effect, 100 complete control); read-out: Plant response rating, Wheat. Summed up: as §1

Consider `CN1C[C@H](c2cc(F)cc(F)c2)[C@@H](C(=O)Nc2ncccc2F)C1=O` [Compound 783], for which the pest or weed control at 125 g/ha in the assay with Kochia (Kochia scoparia) [1] (125 g ai/ha, preemergence, visual rating after approx. 10 d, 0 to 100 scale where 0 is no effect and 100 is complete control, read-out: Plant response rating, Kochia) worked out at 30%; in assay [2] (125 g ai/ha, preemergence, visual rating after approx. 10 d, 0 to 100 scale where 0 is no effect and 100 is complete control, read-out: Plant response rating, Foxtail, Giant) it was 0%; in assay [3] (125 g ai/ha, preemergence, visual rating after approx. 10 d, 0 to 100 scale where 0 is no effect and 100 is complete control, read-out: Plant response rating, Pigweed) it was 0%; in [4] (125 g ai/ha, preemergence, visual rating after approx. 10 d, 0 to 100 scale where 0 is no effect and 100 is complete control, read-out: Plant response rating, Ragweed), 0%; in [5] (125 g ai/ha, preemergence, visual rating after approx. 10 d, 0 to 100 scale where 0 is no effect and 100 is complete control, read-out: Plant response rating, Ryegrass, Italian) it was 0%; in [6], 0%. Further, the pest or weed control at 125 g/ha (in the assay with Kochia (Kochia scoparia) [7]; in assay [8]; in assay [9]; in assay [10]; in assay [11]; in [12]) was 0% in each case. Also, in assay [13], the pest or weed control at 125 g/ha amounted to 0%. The pest or weed control at 500 g/ha in the assay with Kochia (Kochia scoparia) [1] (500 g ai/ha, Preemergence, visual injury vs untreated controls after approximately 10 d, read-out: Kochia plant response rating (0 to 100 scale where 0 is no effect and 100 is complete control)) turned out to be 50%; in [2] (500 g ai/ha, Preemergence, visual injury vs untreated controls after approximately 10 d, read-out: Foxtail, Giant plant response rating (0 to 100 scale where 0 is no effect and 100 is complete control)) it was 80%; in assay [3] (500 g ai/ha, Preemergence, visual injury vs untreated controls after approximately 10 d, read-out: Pigweed plant response rating (0 to 100 scale where 0 is no effect and 100 is complete control)), 0%; in assay [4] (500 g ai/ha, Preemergence, visual injury vs untreated controls after approximately 10 d, read-out: Ragweed plant response rating (0 to 100 scale where 0 is no effect and 100 is complete control)), 0%; in assay [5] (500 g ai/ha, Preemergence, visual injury vs untreated controls after approximately 10 d, read-out: Ryegrass, Italian plant response rating (0 to 100 scale where 0 is no effect and 100 is complete control)), 0%. This compound had a Corn plant response rating (crop injury, 0 = no effect, 100 = complete kill) at 125 g/ha in the assay with corn (Zea mays) of 0%. The plant injury at 125 g/ha in [14] was 0%.

Values taken from US12077503B2, “Substituted cyclic amides and their use as herbicides” (FMC CORPORATION, priority 2015, dated 2024).
